Laboratory results published in the supplement of paper PMC10307832.

Assays:
Experiment in all cases: relative viability (nuclei count vs DMSO), 5 days (fraction); higher = more cells survive
[1] = compound: CC1=C(C(=O)N2C=CSC2=N1)CCN3CCC(=C(C4=CC=CC=C4)C5=CC=C(C=C5)F)CC3 + CS(=O)(=O)CCNCc1ccc(-c2ccc3ncnc(Nc4ccc(OCc5cccc(F)c5)c(Cl)c4)c3c2)o1 [Lapatinib] (partner 2 µM)
How it was run: (§1)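 A single step with final 0.05% Triton X-100, 1% formaldehyde and 1 ug/ml Hoechst fixed the cells and stained nuclei 5 days after treatment. Lung cancer cell lines in 1536-well plates had been treated by pin tool the day after seeding with one drug alone or a fixed anchor-drug dose plus five library-drug doses (not always all listed) in √10 steps, and nuclei were counted on 4× images. Relative viability is the ratio of nuclei in treated wells to nuclei in vehicle wells, taken as the median of duplicate plates.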

[2] = compound: CC1=C(C(=O)N2C=CSC2=N1)CCN3CCC(=C(C4=CC=CC=C4)C5=CC=C(C=C5)F)CC3 + C[C@@H](Oc1cc(-c2cnn(C3CCNCC3)c2)cnc1N)c1c(Cl)ccc(F)c1Cl [Crizotinib] (partner 1 µM)
How it was run: as §1

[3] = compound: CC1=C(C(=O)N2C=CSC2=N1)CCN3CCC(=C(C4=CC=CC=C4)C5=CC=C(C=C5)F)CC3 + Cc1cc(Nc2cc(N3CCN(C)CC3)nc(Sc3ccc(NC(=O)C4CC4)cc3)n2)n[nH]1 [Tozasertib] (partner 0.1 µM)
How it was run: as §1

[4] = compound: CC1=C(C(=O)N2C=CSC2=N1)CCN3CCC(=C(C4=CC=CC=C4)C5=CC=C(C=C5)F)CC3 + Nc1ncn([C@H]2C[C@H](O)[C@@H](CO)O2)c(=O)n1 [Decitabine] (partner 2 µM)
How it was run: as §1

NCI-H1734 was tested, and the relative viability ([1]; first compound 0.08 µM) was 1.08, the relative viability ([1]; first compound 0.253 µM) was 0.866 and the relative viability ([1]; first compound 0.8 µM) was 0.984. The relative viability ([1]; first compound 2.53 µM) was 1.33, the relative viability ([1]; first compound 8 µM) was 0.71 and the relative viability ([2]; first compound 0.08 µM) was 0.661. The relative viability ([2]; first compound 0.253 µM) was 0.653, the relative viability ([2]; first compound 0.8 µM) was 0.625 and the relative viability ([2]; first compound 2.53 µM) was 0.672. It also gave a relative viability ([2]; first compound 8 µM) of 0.467, a relative viability ([3]; first compound 0.08 µM) of 0.253 and a relative viability ([3]; first compound 0.253 µM) of 0.237. The relative viability ([3]; first compound 0.8 µM) was 0.266, the relative viability ([3]; first compound 2.53 µM) was 0.27 and the relative viability ([3]; first compound 8 µM) was 0.234. It also gave a relative viability ([4]; first compound 0.08 µM) of 0.481, a relative viability ([4]; first compound 0.253 µM) of 0.469 and a relative viability ([4]; first compound 0.8 µM) of 0.507. It also gave a relative viability ([4]; first compound 2.53 µM) of 0.504 and a relative viability ([4]; first compound 8 µM) of 0.496.

NCI-H1755 showed a relative viability ([1]; first compound 0.08 µM) of 1.08, a relative viability ([1]; first compound 0.253 µM) of 1.01 and a relative viability ([1]; first compound 0.8 µM) of 1.05. It also gave a relative viability ([1]; first compound 2.53 µM) of 1.08, a relative viability ([1]; first compound 8 µM) of 0.861 and a relative viability ([2]; first compound 0.08 µM) of 0.927. The relative viability ([2]; first compound 0.253 µM) was 0.87, the relative viability ([2]; first compound 0.8 µM) was 0.907 and the relative viability ([2]; first compound 2.53 µM) was 0.997. The relative viability ([2]; first compound 8 µM) was 0.722, the relative viability ([3]; first compound 0.08 µM) was 0.553 and the relative viability ([3]; first compound 0.253 µM) was 0.614. It also gave a relative viability ([3]; first compound 0.8 µM) of 0.604, a relative viability ([3]; first compound 2.53 µM) of 0.547 and a relative viability ([3]; first compound 8 µM) of 0.421. The relative viability ([4]; first compound 0.08 µM) was 0.677, the relative viability ([4]; first compound 0.253 µM) was 0.784 and the relative viability ([4]; first compound 0.8 µM) was 0.721. For the same cell line, the relative viability ([4]; first compound 2.53 µM) was 0.66 and the relative viability ([4]; first compound 8 µM) was 0.754.

For NCI-H1915, the relative viability ([1]; first compound 0.08 µM) was 1.22, the relative viability ([1]; first compound 0.253 µM) was 1.07 and the relative viability ([1]; first compound 0.8 µM) was 0.959. For the same cell line, the relative viability ([1]; first compound 2.53 µM) was 1.12, the relative viability ([1]; first compound 8 µM) was 0.691 and the relative viability ([2]; first compound 0.08 µM) was 0.953. It also gave a relative viability ([2]; first compound 0.253 µM) of 1.01, a relative viability ([2]; first compound 0.8 µM) of 0.957 and a relative viability ([2]; first compound 2.53 µM) of 0.862. It also gave a relative viability ([2]; first compound 8 µM) of 0.521, a relative viability ([3]; first compound 0.08 µM) of 0.438 and a relative viability ([3]; first compound 0.253 µM) of 0.442. For the same cell line, the relative viability ([3]; first compound 0.8 µM) was 0.444, the relative viability ([3]; first compound 2.53 µM) was 0.432 and the relative viability ([3]; first compound 8 µM) was 0.318. For the same cell line, the relative viability ([4]; first compound 0.08 µM) was 0.305, the relative viability ([4]; first compound 0.253 µM) was 0.277 and the relative viability ([4]; first compound 0.8 µM) was 0.265. It also gave a relative viability ([4]; first compound 2.53 µM) of 0.253 and a relative viability ([4]; first compound 8 µM) of 0.257.

NCI-H1944 was tested, and the relative viability ([1]; first compound 0.08 µM) was 1.1, the relative viability ([1]; first compound 0.253 µM) was 0.904 and the relative viability ([1]; first compound 0.8 µM) was 0.773. For the same cell line, the relative viability ([1]; first compound 2.53 µM) was 1.1, the relative viability ([1]; first compound 8 µM) was 0.898 and the relative viability ([2]; first compound 0.08 µM) was 1.06. The relative viability ([2]; first compound 0.253 µM) was 1.08, the relative viability ([2]; first compound 0.8 µM) was 1.22 and the relative viability ([2]; first compound 2.53 µM) was 1.14. For the same cell line, the relative viability ([2]; first compound 8 µM) was 1.07, the relative viability ([3]; first compound 0.08 µM) was 0.26 and the relative viability ([3]; first compound 0.253 µM) was 0.273. It also gave a relative viability ([3]; first compound 0.8 µM) of 0.226, a relative viability ([3]; first compound 2.53 µM) of 0.224 and a relative viability ([3]; first compound 8 µM) of 0.204. For the same cell line, the relative viability ([4]; first compound 0.08 µM) was 0.462, the relative viability ([4]; first compound 0.253 µM) was 0.43 and the relative viability ([4]; first compound 0.8 µM) was 0.413. For the same cell line, the relative viability ([4]; first compound 2.53 µM) was 0.433 and the relative viability ([4]; first compound 8 µM) was 0.417.

NCI-H1975 gave a relative viability ([1]; first compound 0.08 µM) of 0.97, a relative viability ([1]; first compound 0.253 µM) of 0.855 and a relative viability ([1]; first compound 0.8 µM) of 0.867. The relative viability ([1]; first compound 2.53 µM) was 0.891, the relative viability ([1]; first compound 8 µM) was 0.518 and the relative viability ([2]; first compound 0.08 µM) was 0.984. For the same cell line, the relative viability ([2]; first compound 0.253 µM) was 0.96, the relative viability ([2]; first compound 0.8 µM) was 0.93 and the relative viability ([2]; first compound 2.53 µM) was 0.943. For the same cell line, the relative viability ([2]; first compound 8 µM) was 0.583, the relative viability ([3]; first compound 0.08 µM) was 0.852 and the relative viability ([3]; first compound 0.253 µM) was 0.63. It also gave a relative viability ([3]; first compound 0.8 µM) of 0.816, a relative viability ([3]; first compound 2.53 µM) of 0.922 and a relative viability ([3]; first compound 8 µM) of 0.37. For the same cell line, the relative viability ([4]; first compound 0.08 µM) was 0.347, the relative viability ([4]; first compound 0.253 µM) was 0.507 and the relative viability ([4]; first compound 0.8 µM) was 0.36. It also gave a relative viability ([4]; first compound 2.53 µM) of 0.408 and a relative viability ([4]; first compound 8 µM) of 0.353.

NCI-H1993 gave a relative viability ([1]; first compound 0.08 µM) of 0.801, a relative viability ([1]; first compound 0.8 µM) of 0.886 and a relative viability ([1]; first compound 2.53 µM) of 0.706. It also gave a relative viability ([1]; first compound 8 µM) of 0.808, a relative viability ([2]; first compound 0.08 µM) of 0.708 and a relative viability ([2]; first compound 0.8 µM) of 0.796. For the same cell line, the relative viability ([2]; first compound 2.53 µM) was 0.906, the relative viability ([2]; first compound 8 µM) was 0.832 and the relative viability ([3]; first compound 0.08 µM) was 0.627. It also gave a relative viability ([3]; first compound 0.253 µM) of 0.502, a relative viability ([3]; first compound 0.8 µM) of 0.557 and a relative viability ([3]; first compound 2.53 µM) of 0.64. It also gave a relative viability ([3]; first compound 8 µM) of 0.495, a relative viability ([4]; first compound 0.08 µM) of 0.635 and a relative viability ([4]; first compound 0.253 µM) of 0.644. The relative viability ([4]; first compound 0.8 µM) was 0.6, the relative viability ([4]; first compound 2.53 µM) was 0.64 and the relative viability ([4]; first compound 8 µM) was 0.576.

NCI-H2009 showed a relative viability ([1]; first compound 0.08 µM) of 1.01, a relative viability ([1]; first compound 0.253 µM) of 0.903 and a relative viability ([1]; first compound 0.8 µM) of 0.785. The relative viability ([1]; first compound 2.53 µM) was 0.946, the relative viability ([1]; first compound 8 µM) was 0.786 and the relative viability ([2]; first compound 0.08 µM) was 1.25. The relative viability ([2]; first compound 0.253 µM) was 1.12, the relative viability ([2]; first compound 0.8 µM) was 0.968 and the relative viability ([2]; first compound 2.53 µM) was 1.14. For the same cell line, the relative viability ([2]; first compound 8 µM) was 1.11, the relative viability ([3]; first compound 0.08 µM) was 0.775 and the relative viability ([3]; first compound 0.253 µM) was 0.668. The relative viability ([3]; first compound 0.8 µM) was 0.738, the relative viability ([3]; first compound 2.53 µM) was 0.756 and the relative viability ([3]; first compound 8 µM) was 0.478. It also gave a relative viability ([4]; first compound 0.08 µM) of 0.396, a relative viability ([4]; first compound 0.253 µM) of 0.393 and a relative viability ([4]; first compound 0.8 µM) of 0.396. The relative viability ([4]; first compound 2.53 µM) was 0.396 and the relative viability ([4]; first compound 8 µM) was 0.369.

Work on NCI-H2023 yielded a relative viability ([1]; first compound 0.08 µM) of 0.876, a relative viability ([1]; first compound 0.253 µM) of 0.796 and a relative viability ([1]; first compound 0.8 µM) of 0.783. The relative viability ([1]; first compound 2.53 µM) was 0.966, the relative viability ([1]; first compound 8 µM) was 0.9 and the relative viability ([2]; first compound 0.08 µM) was 0.69. It also gave a relative viability ([2]; first compound 0.253 µM) of 0.566, a relative viability ([2]; first compound 0.8 µM) of 0.725 and a relative viability ([2]; first compound 2.53 µM) of 0.649. It also gave a relative viability ([2]; first compound 8 µM) of 0.563, a relative viability ([3]; first compound 0.08 µM) of 0.446 and a relative viability ([3]; first compound 0.253 µM) of 0.265. It also gave a relative viability ([3]; first compound 0.8 µM) of 0.393, a relative viability ([3]; first compound 2.53 µM) of 0.44 and a relative viability ([3]; first compound 8 µM) of 0.272. It also gave a relative viability ([4]; first compound 0.08 µM) of 0.257, a relative viability ([4]; first compound 0.253 µM) of 0.248 and a relative viability ([4]; first compound 0.8 µM) of 0.217. The relative viability ([4]; first compound 2.53 µM) was 0.24 and the relative viability ([4]; first compound 8 µM) was 0.156.
